From patent publication US20110172184A1, “ANTITUMOR AGENT CONTAINING 4 - [[3,5 - BIS ([…]) BENZOYL] AMINO] BENZOIC ACID” (TAIHO PHARMACEUTICAL CO., LTD., priority 2008, published 2011)

System: human liver cancer cell line JHH-7
Test: Antitumor effect (tumor weight T/C) on human liver cancer cell line JHH-7 transplanted into the left lateral liver lobe of nude mice
Assay type: in vivo, mouse
Settings: tumor weight on 15th day
Protocol: Sorafenib was weighed at every time of use, and a liquid for administration was prepared. […] BALE/cA Jcl-nu male nude mice (Clea Japan, Inc.) were used as the efficacy test animals.
On the 15th day after the initiation of administration, the mice were killed by bleeding under ether anesthesia, subsequently tumors formed in the left lateral liver lobe were extracted, and the weight of the tumors was measured. The tumor growth rate (%) was calculated by the formula shown below, and the T/C value of each of the drug administered groups was calculated, while the average tumor weight of the non-drug administered control group was taken as 100%. This T/C value was used as an index of the antitumor effect. The statistical significance of the single drug administered groups was determined by Welch's two-tailed test, and the statistical significance of the effect synergizing action obtained by combined use was determined by the intersection union test based on Welch's two-tailed test.
Tumor growth rate (%)=T/C×100
T: Average tumor weight of a group with administration of the test compound
C: Average tumor weight of a group without administration of the test compound
On the 11th day after the transplantation, the animals were grouped into seven animals per group, and the treatment experiment was initiated. Doxorubicin was administered such that 10 mg/kg, which is the maximum tolerated dose for a mouse, was administered one time intravenously. Sorafenib was orally administered once a day for 14 consecutive days.
On the 11th day after the transplantation, the animals were grouped into seven animals per group, and the treatment experiment was initiated. Gemcitabine was administered such that 120 mg/kg, which is the maximum tolerated dose for a mouse, was administered intraperitoneally four times in total at an interval of 3 days. Sorafenib was orally administered once a day for 14 consecutive days.

## C[Si](C)(C)c1cc(C(=O)Nc2ccc(C(=O)O)cc2)cc([Si](C)(C)C)c1 [compound 1, 4-[[3,5-bis(trimethylsilyl)benzoyl]amino]benzoic acid]
Pharmacological Test Example 1, compound 1 single drug, 2 mg/kg orally once a day for 14 days
  T/C value (tumor growth rate): 51%

## COc1cccc2c1C(=O)c1c(O)c3c(c(O)c1C2=O)C[C@@](O)(C(=O)CO)C[C@@H]3O[C@H]1C[C@H](N)[C@H](O)[C@H](C)O1 [doxorubicin]
Comparative Example 1, doxorubicin single drug, 10 mg/kg one time intravenously
  T/C value (tumor growth rate): 70%

## Nc1ccn([C@@H]2O[C@H](CO)[C@@H](O)C2(F)F)c(=O)n1 [gemcitabine]
Comparative Example 2, gemcitabine single drug, 120 mg/kg intraperitoneally four times at an interval of 3 days
  T/C value (tumor growth rate): 47%

## CNC(=O)c1cc(Oc2ccc(NC(=O)Nc3ccc(Cl)c(C(F)(F)F)c3)cc2)ccn1 [sorafenib, N-(4-chloro-3-(trifluoromethyl)phenyl)-N′-(4-(2-(N-methylcarbamoyl)-4-pyridyloxy)phenyl)urea]
Comparative Example 1, sorafenib single drug, orally once a day for 14 days
  T/C value (tumor growth rate): 62%
Comparative Example 2, sorafenib single drug, orally once a day for 14 days
  T/C value (tumor growth rate): 60%
Pharmacological Test Example 1, sorafenib single drug, 10 mg/kg orally once a day for 14 days
  T/C value (tumor growth rate): 65%
